Experimental data from ChEMBL document CHEMBL1201862, “PubChem BioAssay data set” (2004).
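Protocol summary: plate cells (96-well), add compound at 5 concentrations, incubate 48 h, interpolate endpoints linearly. GI50: concentration for 50% inhibition of growth.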 Activity calls are given as the source filed them. No stated cut-off is given here; in the data, active = GI50 up to about 1.1 µM and inactive = higher.

Key:
Assay in all cases: NCI anticancer screen, dose series, 48 h
786-0 = test system: 786-0
A549 = test system: A549
DMS-114 = test system: DMS-114
HCT-15 = test system: HCT-15
IGROV-1 = test system: IGROV-1
K562 = test system: K562
MOLT-4 = test system: MOLT-4
NCI-H226 = test system: NCI-H226
OVCAR-3 = test system: OVCAR-3
OVCAR-5 = test system: OVCAR-5
OVCAR-8 = test system: OVCAR-8
RXF 393 = test system: RXF 393
SK-MEL-5 = test system: SK-MEL-5
SN12C = test system: SN12C
SR = test system: SR
UACC-62 = test system: UACC-62
NCI-H522 = test system: NCI-H522
SK-OV-3 = test system: SK-OV-3
U-251 = test system: U-251
NCI/ADR-RES = test system: NCI/ADR-RES

SMILES	GI50 (786-0)	GI50 (A549)	GI50 (DMS-114)	GI50 (HCT-15) [µM]	GI50 (IGROV-1)	GI50 (K562)	GI50 (MOLT-4)	GI50 (NCI-H226)	GI50 (OVCAR-3)	GI50 (OVCAR-5)	GI50 (OVCAR-8)	GI50 (RXF 393)	GI50 (SK-MEL-5)	GI50 (SN12C)	GI50 (SR)	GI50 (UACC-62)	GI50 (NCI-H522)	GI50 (SK-OV-3)	GI50 (U-251)	GI50 (NCI/ADR-RES)
c1ccc2c(c1)[nH]c1c[nH]c3c4cccnc4nc-3c12	17.1 µM (inactive)	20 µM (inactive)	19 µM (inactive)	15.3	18.1 µM (inactive)	21.5 µM (inactive)	24.4 µM (inactive)	25.2 µM (inactive)	17.1 µM (inactive)	20.3 µM (inactive)	17.1 µM (inactive)	18.7 µM (inactive)	19.4 µM (inactive)	18.6 µM (inactive)	17.7 µM (inactive)	15.1 µM (inactive)				
COC(=O)C(=O)C(C(=O)C(=O)Nc1cc([N+](=O)[O-])ccc1C#N)c1nc2ccccc2nc1O (stereo not given)	> 100 µM (inactive)	> 100 µM (inactive)	> 100 µM (inactive)	> 100	> 100 µM (inactive)		> 100 µM (inactive)	> 100 µM (inactive)	> 100 µM (inactive)		> 100 µM (inactive)	> 100 µM (inactive)	> 100 µM (inactive)	> 100 µM (inactive)	> 100 µM (inactive)	> 100 µM (inactive)	> 100 µM (inactive)	> 100 µM (inactive)		
NC(=S)N/N=C1\C(=O)N(CCc2ccccc2)C(=O)C1C(=O)NCCc1ccccc1 (stereo not given)	> 100 µM (inactive)		74.8 µM (inactive)	> 100	> 100 µM (inactive)	> 100 µM (inactive)		> 100 µM (inactive)	> 100 µM (inactive)	> 100 µM (inactive)	> 100 µM (inactive)	> 100 µM (inactive)	> 100 µM (inactive)	> 100 µM (inactive)		> 100 µM (inactive)	> 100 µM (inactive)	> 100 µM (inactive)	> 100 µM (inactive)	
CCOC(=O)CN(c1ccccc1)c1nc(=[N+](C)C)ss1	37.9 µM (inactive)	30.4 µM (inactive)	0.309 µM (active)	16.4	> 10 µM (inactive)	6.78 µM (inactive)	1.77 µM (inactive)	23.8 µM (inactive)	0.284 µM (active)		20 µM (inactive)	10.5 µM (inactive)		17.9 µM (inactive)	0.678 µM (active)	26.9 µM (inactive)	0.24 µM (active)	85.1 µM (inactive)	17.9 µM (inactive)	
CN(CC1NCCCC1O)C12CC3CC(CC(C3)C1)C2 (stereo not given)	> 100 µM (inactive)	> 100 µM (inactive)	> 100 µM (inactive)	> 100	> 100 µM (inactive)	70.8 µM (inactive)	> 100 µM (inactive)	> 100 µM (inactive)	> 100 µM (inactive)	> 100 µM (inactive)	> 100 µM (inactive)			> 100 µM (inactive)		> 100 µM (inactive)	> 100 µM (inactive)	> 100 µM (inactive)	> 100 µM (inactive)	
COc1cc(Cl)c2c3c(c(C(=O)c4ccccc4)oc13)CCC2	> 100 µM (inactive)	> 100 µM (inactive)	> 100 µM (inactive)	> 100	> 100 µM (inactive)	41.7 µM (inactive)	> 100 µM (inactive)		> 100 µM (inactive)		> 100 µM (inactive)	62.5 µM (inactive)	> 100 µM (inactive)	> 100 µM (inactive)		> 100 µM (inactive)		> 100 µM (inactive)	> 100 µM (inactive)	
CCc1ccccc1NC(=O)CC1NC(=O)CS1 (stereo not given)	> 100 µM (inactive)	> 100 µM (inactive)	> 100 µM (inactive)		> 100 µM (inactive)	> 100 µM (inactive)	> 100 µM (inactive)	> 100 µM (inactive)	> 100 µM (inactive)	> 100 µM (inactive)	> 100 µM (inactive)	> 100 µM (inactive)	> 100 µM (inactive)	> 100 µM (inactive)		> 100 µM (inactive)	> 100 µM (inactive)	> 100 µM (inactive)	> 100 µM (inactive)	
c1ccc(C(c2ccccc2)c2ccccn2)cc1	> 100 µM (inactive)	> 100 µM (inactive)	> 100 µM (inactive)	> 100	> 100 µM (inactive)	> 100 µM (inactive)		> 100 µM (inactive)	> 100 µM (inactive)	> 100 µM (inactive)	> 100 µM (inactive)		> 100 µM (inactive)	> 100 µM (inactive)		> 100 µM (inactive)		> 100 µM (inactive)	> 100 µM (inactive)	
COc1ccc(NCc2cnc3nc(N)nc(N)c3c2C)cc1	0.254 µM (active)	0.303 µM (active)		0.443	0.771 µM (active)	0.0486 µM (active)	0.493 µM (active)	33.7 µM (inactive)	28.4 µM (inactive)	3.87 µM (inactive)	0.167 µM (active)	43.5 µM (inactive)	0.419 µM (active)	3.85 µM (inactive)	0.449 µM (active)	0.274 µM (active)	5.52 µM (inactive)	4.34 µM (inactive)	0.555 µM (active)	> 100 µM (inactive)
O=Cc1cn(CCCCCn2cc(C=O)c3ccccc32)c2ccccc12	71.4 µM (inactive)	> 100 µM (inactive)		> 100	> 100 µM (inactive)	> 10 µM (inactive)	> 100 µM (inactive)	0.262 µM (active)	> 100 µM (inactive)	1.68 µM (inactive)	> 100 µM (inactive)	6.55 µM (inactive)	> 100 µM (inactive)	> 100 µM (inactive)	> 100 µM (inactive)	> 100 µM (inactive)	8.18 µM (inactive)	> 100 µM (inactive)	67.9 µM (inactive)	> 100 µM (inactive)
Cc1nn(C(=O)c2ccc(Cl)cc2)c2c1C(c1ccc([N+](=O)[O-])cc1)SC(=N)N2 (stereo not given)	> 10 µM (inactive)	> 10 µM (inactive)		> 10	> 10 µM (inactive)	> 10 µM (inactive)	> 10 µM (inactive)	> 10 µM (inactive)	> 10 µM (inactive)	> 10 µM (inactive)	> 10 µM (inactive)	> 10 µM (inactive)	> 10 µM (inactive)	> 10 µM (inactive)	> 10 µM (inactive)	> 10 µM (inactive)	> 10 µM (inactive)	> 10 µM (inactive)	> 10 µM (inactive)	> 10 µM (inactive)
COC(=O)NNC(=O)OC.COC(=O)Nc1ccccc1NC(=O)OC.COC(=O)Oc1nn(C(=O)OC)c(=O)c2ccccc12	> 100 µM (inactive)	> 100 µM (inactive)		> 100	> 100 µM (inactive)	> 100 µM (inactive)	> 100 µM (inactive)	> 100 µM (inactive)	> 100 µM (inactive)	> 100 µM (inactive)	> 100 µM (inactive)	> 100 µM (inactive)	> 100 µM (inactive)	> 100 µM (inactive)	> 100 µM (inactive)	> 100 µM (inactive)	> 100 µM (inactive)	> 100 µM (inactive)	> 100 µM (inactive)	> 100 µM (inactive)
CCCCC(/C=C\COC1CCCCO1)=C/C(=O)OCC (stereo not given)	65.2 µM (inactive)	56.6 µM (inactive)		> 100	61.2 µM (inactive)	45.2 µM (inactive)	25.1 µM (inactive)	> 100 µM (inactive)	52.7 µM (inactive)	> 100 µM (inactive)	94.4 µM (inactive)	60.7 µM (inactive)	92.5 µM (inactive)	57.4 µM (inactive)	32.6 µM (inactive)	55.7 µM (inactive)	30.5 µM (inactive)	> 100 µM (inactive)	44.8 µM (inactive)	> 100 µM (inactive)
CN(/N=C/c1ccnc2ccccc12)c1ccc(Cl)cc1[N+](=O)[O-]	49.9 µM (inactive)	> 100 µM (inactive)		> 100	> 100 µM (inactive)	> 100 µM (inactive)	45.3 µM (inactive)	> 100 µM (inactive)	80.9 µM (inactive)	> 100 µM (inactive)	85.5 µM (inactive)	37.3 µM (inactive)	6.12 µM (inactive)	> 100 µM (inactive)	2.64 µM (inactive)	> 100 µM (inactive)	> 100 µM (inactive)	> 100 µM (inactive)	> 100 µM (inactive)	> 100 µM (inactive)
Cc1ccc(-c2nc(N/N=C/C=C/c3ccccc3)c3ccccc3n2)cc1	30 µM (inactive)	34.4 µM (inactive)		48.4	19.2 µM (inactive)	> 100 µM (inactive)	> 100 µM (inactive)	> 100 µM (inactive)	31.6 µM (inactive)	17.4 µM (inactive)	44.2 µM (inactive)	26.2 µM (inactive)	14.8 µM (inactive)	24.8 µM (inactive)	> 100 µM (inactive)	17.1 µM (inactive)	21.3 µM (inactive)	23.8 µM (inactive)	33.3 µM (inactive)	72.9 µM (inactive)
CC(=O)Nc1c(S(=O)(=O)c2ccccc2)c(C)c(C)n1Cc1ccccc1	> 100 µM (inactive)	> 100 µM (inactive)		> 100	> 100 µM (inactive)	> 100 µM (inactive)	> 100 µM (inactive)	> 100 µM (inactive)	52.8 µM (inactive)	> 100 µM (inactive)	> 100 µM (inactive)	> 100 µM (inactive)	83.8 µM (inactive)	> 100 µM (inactive)	> 10 µM (inactive)	> 100 µM (inactive)	> 100 µM (inactive)	> 100 µM (inactive)	> 100 µM (inactive)	> 100 µM (inactive)
